Data reported in patent publication US7754768B2, “Methods and compositions for modulating alpha adrenergic receptor activity” (Allergan, Inc., priority 2000, dated 2010).

Experiments:
[1] = system: rat spinal nerve ligation allodynia model; test: Rat spinal nerve ligation allodynia model (chronic pain, von Frey tactile allodynia); type: in vivo; settings: 30 minutes after administration
Method: (§1) The physiological activity of these compounds was tested using four models: a rat locomotor model to assess sedation, an assay of cardiovascular activity in monkeys, a rat thermal paw withdrawal assay (Dirig et al., J. Neurosci. Methods 76:183-191 (1997) to test the alleviation of acute pain, and the rat spinal nerve ligation allodynia model (Kim and Chung, Pain 50:355-363 (1992) to assess the alleviation of neuropathic pain and central sensitization typical of chronic pain. As is known to those of skill in the art, these tests are established pharmacological methods for determining sedation, cardiovascular effects, acute pain and chronic pain, respectively, of pharmaceutical agents.
A model for chronic pain (in particular peripheral neuropathy such as causalgia) involves the surgical ligation of the L5 (and optionally the L6) spinal nerves on one side in experimental animals. Rats recovering from the surgery gain weight and display a level of general activity similar to that of normal rats. However, these rats develop abnormalities of the foot, wherein the hindpaw is moderately everted and the toes are held together. More importantly, the hindpaw on the side affected by the surgery appears to become sensitive to pain from low-threshold mechanical stimuli, such as that producing a faint sensation of touch in a human, within about 1 week following surgery. This sensitivity to normally non-painful touch is called “tactile allodynia” and lasts for at least two months. The response includes lifting the affected hindpaw to escape from the stimulus, licking the paw and holding it in the air for many seconds. None of these responses is normally seen in the control group.
Rats are anesthetized before surgery. The surgical site is shaved and prepared either with betadine or Novacaine. Incision is made from the thoracic vertebra X111 down toward the sacrum. Muscle tissue is separated from the spinal vertebra (left side) at the L4-S2 levels. The L6 vertebra is located and the transverse process is carefully removed with a small rongeur to expose the L4-L6 spinal nerves. The L5 and L6 spinal nerves are isolated and tightly ligated with 6-0 silk thread. The same procedure is done on the right side as a control, except no ligation of the spinal nerves is performed.
A complete hemostasis is confirmed, then the wounds are sutured. A small amount of antibiotic ointment is applied to the incised area, and the rat is transferred to the recovery plastic cage under a regulated heat-temperature lamp. […]
Tactile allodynia is measured prior to and 30 minutes after drug administration using von Frey hairs that are a series of fine hairs with incremental differences in stiffness. […] The applied force has been calculated to range from 0.41 to 15.1 grams. […]

[2] = system: African Green monkeys made glaucomatous; test: Intraocular pressure in glaucomatous African Green monkeys after oral dosing; type: in vivo, African Green monkey
Method: African Green monkeys are made glaucomatous and divided into three groups. Ocular hypertension is measured before the administration of any drug, then one of each group of animals is given an oral dose of either a) glucose (negative control); b) a formulation of FORMULA 2 at a dosage of either 2 mg/kg or 7 mg/kg, or c) Diamox® (acetazolamide; a carbonic anhydrase inhibitor used for treatment of glaucoma) (positive control) at a concentration of 20 mg/kg. Intraocular pressure is measured at 0, 6, 12, and 24 hours following administration of each formulation.

[3] = system: visceral pain; test: Treatment of visceral pain in a colon cancer patient; type: in vivo, human; settings: intravenous infusion twice daily, after two days, one patient
From the text: A patient suffering from colon cancer and undergoing chemotherapy experiences severe visceral pain associated with this primary condition. Treatment of this pain with opiates has been ineffective to provide substantial relief. The patient is given a therapeutic amount of FORMULA 3 by intravenous infusion in a pharmaceutically acceptable vehicle. The treatment is given twice daily. […] Under the same facts as Example 7, except the patient is given FORMULA 2 instead of FORMULA 3.

[4] = system: male Sprague-Dawley rats; test: Rat locomotor model to assess sedation (exploratory activity); type: in vivo; settings: 30 minutes after injection, versus vehicle controls
Method: as §1
To test sedation, six male Sprague-Dawley rats were given up to 3 mg/kg of each compound in a saline or DMSO vehicle by intraperitoneal injection (i.p.). Sedation was graded 30 minutes following administration of the drug by monitoring locomotor skills as follows.
The Sprague-Dawley rats are weighed and 1 ml/kg body weight of an appropriate concentration (ie. 3 mg/ml for a final dose of 3 mg/kg) drug solution is injected intraperitoneally. FORMULA 3 is formulated in approximately 10% DMSO and FORMULA 2 and FORMULA 4 are formulated in 50% DMSO. The results are compared to 29 historical controls that were injected with 1 ml/kg saline or 50% DMSO. Rat activity is then determined 30 minutes after injection of the drug solution. Rats are placed in a dark covered chamber and a digicom analyzer (Omnitech Electronic) quantitates their exploratory behavior for a five-minute period. The machine records each time the rat interrupts an array of 32 photoelectric beams in the X and Y orientation.
FORMULA 2 and FORMULA 3 were tested at 1 mg/kg and FORMULA 4 was tested at 3 mg/kg. Thus, the compounds are not sedating.

[5] = system: allodynia resulting from shingles; test: Treatment of allodynia resulting from shingles in a patient; type: in vivo, human; settings: oral capsule as needed, after two days' treatment, one patient
From the text: A person in generally good physical condition suffers from serious pain to their upper body due caused by contact of their skin with their clothing. The patient is unable to wear clothing on their upper body without severe pain. […] The patient is given a therapeutically effective oral dose of FORMULA 3 in capsule form as needed for the treatment of pain. […] Same facts as in Example 5, except the patient is given a therapeutically effective oral dose of FORMULA 2 in capsule form as needed for the treatment of pain.

With `OCCNC(=S)NCc1ccc(F)cc1` [AGN196204] the “Reduction of the response to tactile stimuli that indicate tactile allodynia (analgesic in chronic pain model)” value (“Reduction of the response” below) [1] was “able to reduce the response to the tactile stimuli”.

For `CC(=O)Nc1nnc(S(N)(=O)=O)s1` [Diamox ®, acetazolamide, reference compound], the “Change in Intraocular Pressure (%)” value ([2]; oral 20 mg/kg (positive control), 0 hours) was 0%, the “Change in Intraocular Pressure (%)” value ([2]; oral 20 mg/kg (positive control), 6 hours) was −38% and the “Change in Intraocular Pressure (%)” value ([2]; oral 20 mg/kg (positive control), 12 hours) was −41%. For the same compound, the “Change in Intraocular Pressure (%)” value ([2]; oral 20 mg/kg (positive control), 24 hours) was −18%.

For `OCCNC(=S)NCc1cccc(Cl)c1F` [FORMULA 2, 1-(3-chloro-2-fluorobenzyl)-3-(2-hydroxyethyl)-thiourea], the Patient-reported visceral pain [3] was “significant alleviation”, the “Change in Intraocular Pressure (%)” value ([2]; oral 2 mg/kg, 0 hours) was 0% and the “Change in Intraocular Pressure (%)” value ([2]; oral 2 mg/kg, 6 hours) was −18%. The “Change in Intraocular Pressure (%)” value ([2]; oral 2 mg/kg, 12 hours) was −32%, the “Change in Intraocular Pressure (%)” value ([2]; oral 2 mg/kg, 24 hours) was −3% and the “Change in Intraocular Pressure (%)” value ([2]; oral 7 mg/kg, 0 hours) was 0%. The “Change in Intraocular Pressure (%)” value ([2]; oral 7 mg/kg, 6 hours) was −22%, the “Change in Intraocular Pressure (%)” value ([2]; oral 7 mg/kg, 12 hours) was −26% and the “Change in Intraocular Pressure (%)” value ([2]; oral 7 mg/kg, 24 hours) was −15%. For the same compound, the “Sedation: reduction in the exploratory activity of the rats” value (shortened to “Sedation: reduction”) ([4]; 1 mg/kg i.p.) was “not sedating”, the “Reduction of the response” value [1] was “able to reduce the response to the tactile stimuli” and the “Patient-reported allodynia resulting from shingles” value [5] was “markedly reduced”.

In the case of `OCCNC(=S)NCc1ccc(F)cc1` [FORMULA 3], the Patient-reported visceral pain [3] is reported as “significant alleviation”, the “Sedation: reduction” value ([4]; 1 mg/kg i.p.) is reported as “not sedating” and the “Reduction of the response” value [1] is reported as “analgesic in a model of chronic pain”. The “Patient-reported allodynia resulting from shingles” value [5] was “markedly reduced”.

`OCCNC(=S)NCc1ccccc1F` [FORMULA 4, reference compound] was tested, and the “Sedation: reduction” value ([4]; 3 mg/kg i.p.) was “not sedating” and the “Analgesic activity (tactile allodynia)” value ([1]; i.p. doses up to 3 mg/kg) was “no analgesic activity”.
